# According to article PMC9154758, “Alpinetin suppresses CYP3A4, 2C9, and 2E1 activity in vitro” (Pharmaceutical Biology, 2022):
# Legend:
# Type in all cases: in vitro ADME
# CYP3A4 [1] = target: T1, CYP3A4 (Homo sapiens, UniProt P08684); assay: CYP3A4 inhibition in pooled human liver microsomes (testosterone 6β-hydroxylation)
# T1 construct: The pooled human liver microsomes (HLMs) were obtained from BD Biosciences Discovery Labware; tissue BD Biosciences Discovery Labware; host or cells: pooled human liver microsomes
# Procedure: (§1) The pooled human liver microsomes (HLMs) were obtained from BD Biosciences Discovery Labware. The HLMs were incubated with specific substrates of corresponding CYP450 isoenzymes under the reaction conditions in Table 1 according to previous reports (Dong et al. [2018]; Zhang et al. [2019]; Zhang, Feng, et al. [2020]). The incubation system also included alpinetin (Figure 1, 99%, Chengdu Munster Biothechnology Co, China, or specific inhibitors) and an β-NADPH generating system as previously reported in the potassium phosphate buffer with a final volume of 200 μL. The β-NADPH generating system contained NADP^+, glucose-6-phosphate, glucose-6-phosphate dehydrogenase, and MgCl2, which was used to initiate the reaction after a pre-incubation of 3 min. At the end of the reactions, the acetonitrile or trichloroacetic acid (for the evaluation of CYP2A6) was added for the termination of the reactions. All reagents were of at least analytical reagent grade obtained from Sigma Aldrich (USA). All incubations were performed in triplicate and the concentrations of metabolites were analysed with HPLC.
# (§2) The effect of alpinetin on the activity of CYP1A2, 2A6, 3A4, 2C8, 2C9, 2C19, 2D6, and 2E1 was first evaluated with a concentration of 100 μM. The isoenzymes that were inhibited by alpinetin were further incubated with 0, 2.5, 5, 10, 25, 50, and 100 μM alpinetin to obtain the values of IC50.
# (§3) Meanwhile, the kinetic studies were conducted in the presence of various substrate concentrations to obtain the values of Ki. The inhibition model was evaluated according to the following equations: v = (VmaxS)/[Km(1 + I/Ki) + S] for the competitive inhibition and v = (VmaxS)/[(Km + S(1 + I/KiKI)] for the non-competitive inhibition. The I is the concentration of the compound, Ki is the inhibition constant, S is the concentration of the substrate, and Km is the substrate concentration at half the maximum velocity (Vmax) of the reaction.
# CYP2C9 [2] = target: T2, CYP2C9 (Homo sapiens, UniProt P11712); assay: CYP2C9 inhibition in pooled human liver microsomes (diclofenac 4′-hydroxylation)
# T2 construct: The pooled human liver microsomes (HLMs) were obtained from BD Biosciences Discovery Labware; tissue BD Biosciences Discovery Labware; host or cells: pooled human liver microsomes
# Procedure: as §1, §2, §3
# CYP2E1 [3] = target: T3, CYP2E1 (Homo sapiens, UniProt P05181); assay: CYP2E1 inhibition in pooled human liver microsomes (chlorzoxazone 6-hydroxylation)
# T3 construct: The pooled human liver microsomes (HLMs) were obtained from BD Biosciences Discovery Labware; tissue BD Biosciences Discovery Labware; host or cells: pooled human liver microsomes
# Procedure: as §1, §2, §3
# CYP3A4 [4] = target: T1, CYP3A4; assay: Time-dependent inhibition assay of CYP3A4 in human liver microsomes
# Procedure: (§4) The time-dependent inhibition assay was conducted with an incubation time of 0, 5, 10, 15, and 30 min after a 30 min pre-incubation with 1 mg/mL HLMs in the presence of NADPH-generating system at 37 °C.
# CYP2C9 [5] = target: T2, CYP2C9; assay: Time-dependent inhibition assay of CYP2C9 in human liver microsomes; conditions: data not shown
# Procedure: as §4
# CYP2E1 [6] = target: T3, CYP2E1; assay: Time-dependent inhibition assay of CYP2E1 in human liver microsomes; conditions: data not shown
# Procedure: as §4
# [7] = 100 μM alpinetin, relative to negative control
# [8] = competitive model, various substrate concentrations
# T2 sequence (P11712 whole entry): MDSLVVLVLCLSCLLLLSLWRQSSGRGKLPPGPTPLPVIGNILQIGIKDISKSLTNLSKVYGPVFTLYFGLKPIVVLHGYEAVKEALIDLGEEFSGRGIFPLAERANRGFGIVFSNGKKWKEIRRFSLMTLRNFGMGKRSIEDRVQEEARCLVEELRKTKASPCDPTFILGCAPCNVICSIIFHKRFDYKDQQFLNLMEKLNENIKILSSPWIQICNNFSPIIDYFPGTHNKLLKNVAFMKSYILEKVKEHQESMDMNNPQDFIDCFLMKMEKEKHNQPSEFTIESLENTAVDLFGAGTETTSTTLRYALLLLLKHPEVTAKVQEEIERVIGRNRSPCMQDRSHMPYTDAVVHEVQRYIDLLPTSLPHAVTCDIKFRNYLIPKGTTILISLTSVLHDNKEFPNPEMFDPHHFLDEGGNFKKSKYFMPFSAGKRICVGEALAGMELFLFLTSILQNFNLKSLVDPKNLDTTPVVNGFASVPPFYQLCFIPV
# T3 sequence (P05181 whole entry): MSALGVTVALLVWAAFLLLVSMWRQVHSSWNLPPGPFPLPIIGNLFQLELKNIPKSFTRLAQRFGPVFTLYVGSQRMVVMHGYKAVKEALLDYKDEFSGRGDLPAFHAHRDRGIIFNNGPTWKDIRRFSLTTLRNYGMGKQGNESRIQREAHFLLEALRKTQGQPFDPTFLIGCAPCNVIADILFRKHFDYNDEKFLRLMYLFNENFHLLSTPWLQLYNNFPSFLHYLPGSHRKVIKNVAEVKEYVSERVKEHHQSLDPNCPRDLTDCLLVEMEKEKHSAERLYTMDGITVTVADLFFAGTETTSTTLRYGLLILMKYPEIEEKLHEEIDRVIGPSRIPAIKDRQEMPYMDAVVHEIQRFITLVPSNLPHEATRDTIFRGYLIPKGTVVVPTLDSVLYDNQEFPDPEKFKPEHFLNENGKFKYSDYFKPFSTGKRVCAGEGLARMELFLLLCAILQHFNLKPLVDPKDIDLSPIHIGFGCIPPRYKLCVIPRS
# T1 sequence (P08684 whole entry): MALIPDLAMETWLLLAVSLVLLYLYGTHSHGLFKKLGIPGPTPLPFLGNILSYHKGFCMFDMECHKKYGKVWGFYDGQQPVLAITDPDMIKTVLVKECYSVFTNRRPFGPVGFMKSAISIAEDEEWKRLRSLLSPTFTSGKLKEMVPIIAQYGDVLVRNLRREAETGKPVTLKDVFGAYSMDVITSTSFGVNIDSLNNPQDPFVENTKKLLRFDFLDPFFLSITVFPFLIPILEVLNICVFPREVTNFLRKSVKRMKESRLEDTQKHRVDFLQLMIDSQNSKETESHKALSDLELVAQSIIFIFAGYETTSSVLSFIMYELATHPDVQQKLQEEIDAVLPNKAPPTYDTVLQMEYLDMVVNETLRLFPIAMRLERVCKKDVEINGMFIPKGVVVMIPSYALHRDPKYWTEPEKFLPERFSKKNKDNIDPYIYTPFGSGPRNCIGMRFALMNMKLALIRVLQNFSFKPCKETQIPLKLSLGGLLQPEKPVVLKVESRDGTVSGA
compound,measurement,setting,value
COc1cc(O)cc2c1C(=O)C[C@@H](c1ccccc1)O2 [alpinetin],Effect on CYP3A4 activity,CYP3A4 [1]; [7],dramatically inhibitory effect
same,Inhibition model of CYP3A4,"CYP3A4 [1]; best-fitted model, stable Km",non-competitive
same,Ki,"CYP3A4 [1]; non-competitive model, 0, 2, 5, 10, and 20 μM alpinetin, various concentrations of testosterone",4.09 µM
same,IC50,"CYP3A4 [1]; pooled HLMs, 0-100 μM alpinetin, testosterone 50 μM",8.23 µM
same,Effect on CYP2C9 activity,CYP2C9 [2]; [7],dramatically inhibitory effect
same,Ki,CYP2C9 [2]; [8],6.42 µM
same,IC50,"CYP2C9 [2]; pooled HLMs, 0-100 μM alpinetin, diclofenac 10 μM",12.6 µM
same,Inhibition model of CYP2C9,CYP2C9 [2]; stable Vmax,competitively
same,Effect on CYP2E1 activity,CYP2E1 [3]; [7],dramatically inhibitory effect
same,Ki,CYP2E1 [3]; [8],5.4 µM
same,IC50,"CYP2E1 [3]; pooled HLMs, 0-100 μM alpinetin, chlorzoxazone 120 μM",11 µM
same,Inhibition model of CYP2E1,CYP2E1 [3]; stable Vmax,competitively
same,Kinact of time-dependent CYP3A4 inhibition,"CYP3A4 [4]; 30 min pre-incubation, 1 mg/mL HLMs, substrate approx. 4-fold Km",0.041 min⁻¹
same,Time dependence of CYP3A4 inhibition,"CYP3A4 [4]; incubation 0, 5, 10, 15, and 30 min",time-dependent
same,Time dependence of CYP2C9 inhibition,CYP2C9 [5],no time-dependent characteristics
same,Time dependence of CYP2E1 inhibition,CYP2E1 [6],no time-dependent characteristics
